# Results reported in article PMC9995496, “A screen for MeCP2-TBL1 interaction inhibitors using a luminescence-based assay” (Scientific Reports, 2023).
# Structures can show the parent of a compound that is named as a salt.
# Tested on: PRKACA-PRKAR2A interaction (SmBiT-PRKACA / LgBiT-PRKAR2A), protein kinase A
# Design: NanoLuc complementation counter-screen in cell extract, PRKACA with PRKAR2A, loss of luminescence, detects NanoLuc interference
# Conditions: 0.5 h, 20 µM; inhibitor
row,SMILES,Inh (PKA)
1,"Cc1ccccc1CN1C(=O)C2=C(CCN(Cc3ccccc3)C2)N2CCN=C12 [UM0142096:01, TIC10]",4.346
2,"CN(Cc1cccc(-c2ccncc2)c1)C(=O)Oc1ccc(-c2ccc(C(N)=O)cc2)cc1 [UM0142148:01, WWL 70]",11.8%

# Same assay, conditions: counter-screen for NanoLuc interference, 0.5 h, 20 µM, inhibitor, Inh (PKA)
row,Inh (PKA) [%],SMILES
1,0.5645,"O=C(/C=C/c1cccnc1)NCCCCC1CCN(C(=O)c2ccccc2)CC1 [UM0142102:01, FK 866 hydrochloride]"
2,8.491,"CNCc1ccc(-c2[nH]c3cc(F)cc4c3c2CCNC4=O)cc1 [UM0142149:01, Rucaparib (free base)]"

# Same assay, conditions: counter-screen for NanoLuc interference; 0.5 h, 20 µM; inhibitor
row,SMILES,Inh (PKA) [%]
1,"CN1CCc2c(c3ccccc3n2Cc2ccc(C(=O)NO)cc2)C1 [UM0142080:01, Tubastatin A HCl]",2.454
2,"CCCCCCCCc1ccc(CCC(N)(CO)CO)cc1 [UM0142081:01, Fingolimod (FTY720)]",6.851
3,"CNC(=O)c1cc(COc2nnc(Nc3ccc(Cl)cc3)c3ccoc23)ccn1 [UM0142083:01, Telatinib (BAY 57-9352)]",10.72
4,"CC(C)n1nc(-c2ccc3oc(N)nc3c2)c2c(N)ncnc21 [UM0142084:01, INK 128 (MLN0128)]",29.78
5,"O=C(O)c1cccc(-c2noc(-c3ccccc3F)n2)c1 [UM0142085:01, PTC124 (Ataluren)]",9.195
6,"Cc1cc(C)c(Nc2ccnc(Nc3ccc(C#N)cc3)n2)c(C)c1 [UM0142086:01, Dapivirine (TMC120)]",39.35
7,"COc1ncc(-c2ccc3nccc(-c4ccnnc4)c3c2)cc1NS(=O)(=O)c1ccc(F)cc1F [UM0142087:01, GSK2126458]",7.374
8,"CNC(=O)c1ccccc1Nc1nc(Nc2ccc(N3CCOCC3)cc2OC)ncc1Cl [UM0142088:01, TAE226 (NVP-TAE226)]",15.32
9,"CC[C@@H]1C(=O)N(C)c2cnc(Nc3ccc(C(=O)N[C@H]4CC[C@H](N5CCN(CC6CC6)CC5)CC4)cc3OC)nc2N1C(C)C [UM0142089:01, BI6727 (Volasertib)]",8.077
10,"CC(C)[C@H](CO)Nc1nc(Nc2ccc(C(=O)O)c(Cl)c2)c2ncn(C(C)C)c2n1 [UM0142090:01, Purvalanol B]",25.51
11,"C[C@H]1CO[C@@H]2Cn3cc(C(=O)NCc4ccc(F)cc4F)c(=O)c(O)c3C(=O)N12 [UM0142091:01, GSK744 (S/GSK1265744)]",7.532
12,"N#Cc1ccc(OC2CCC(NC(=O)CCSc3nc4ccccc4c(=O)[nH]3)CC2)cc1 (stereo not shown) [UM0142092:01, Tankyrase Inhibitors (TNKS) 49]",5.667
13,"Cc1[nH]nc2ccc(-c3cncc(OC[C@@H](N)Cc4ccccc4)c3)cc12 [UM0142094:01, A-674563]",19.6
14,"NC1(Cc2ccc(Cl)cc2)CCN(c2ncnc3[nH]ccc23)CC1 [UM0142095:01, CCT128930]",38.25
15,"COc1cc(N2CCC(N)CC2)ccc1Nc1ncc(Cl)c(-c2c[nH]c3ccccc23)n1 [UM0142097:01, AZD-3463]",51
16,"C[C@]12CC[C@H](O)CC1=CC[C@@H]1[C@@H]2CC[C@]2(C)C(n3cnc4ccccc43)=CC[C@@H]12 [UM0142098:01, TOK-001]",15.03
17,"O=C(NC(NC(=S)Nc1ccc(F)c([N+](=O)[O-])c1)C(Cl)(Cl)Cl)C(c1ccccc1)c1ccccc1 (stereo not shown) [UM0142099:01, CGK733]",35.68
18,"CN1CCN(c2ccc(Nc3cc(-c4cccc(-n5ccc6cc(C7CC7)cc(F)c6c5=O)c4CO)cn(C)c3=O)nc2)CC1 [UM0142104:01, RN486]",0.8611
19,"O=C(NCc1ccc(Oc2ccccc2)cc1)c1nc(-c2cc(Br)c(O)c(Br)c2)no1 [UM0142105:01, IOWH-032]",17.03
20,"Cc1cnc(NC(=O)Nc2cc(Br)c(C)cc2OC[C@@H]2CNCCO2)cn1 [UM0142106:01, LY2603618]",6.637

row,SMILES,Inh (PKA) [%]
1,"CN1CC[C@H](c2c(O)cc(O)c3c(=O)cc(-c4ccccc4Cl)oc23)[C@H](O)C1 [UM0142107:01, Flavopiridol hydrochloride]",4.692
2,"CN(C)C(=O)c1cc2cnc(Nc3ccc(N4CCNCC4)cn3)nc2n1C1CCCC1 [UM0142108:01, LEE011]",5.257
3,"CCCCCOC(=O)Nc1nc(=O)n([C@@H]2O[C@H](C)[C@@H](O)[C@H]2O)cc1F [UM0142109:01, Capecitabine]",3.507
4,"N#C[C@@H]1C[C@@H]2C[C@@H]2N1C(=O)[C@@H](N)C12CC3CC(CC(O)(C3)C1)C2 [UM0142110:01, Saxagliptin]",1.3
5,"Cc1nn(-c2ccccc2)c(C)c1/C=N/N1CCN(Cc2ccccc2)CC1 [UM0142111:01, SANT-1]",15.15
6,"CC(C)[C@H]1C(=O)N[C@@H](CCCNC(=N)N)C(=O)NCC(=O)N[C@@H](CC(=O)O)C(=O)N[C@H](Cc2ccccc2)C(=O)N1C [UM0142112:01, Cilengitide]",0.5722
7,"O=C1NCCCc2c1oc1ccc(O)cc21 [UM0142113:01, CID 755673]",2.979
8,"CC[C@@H](N)CNc1ccnc(-c2cc(-c3cnn(C)c3)ccc2O)n1 [UM0142114:01, CRT 0066101]",18.6
9,"O=c1ncn2nc(Sc3ccc(F)cc3F)ccc2c1-c1c(Cl)cccc1Cl [UM0142117:01, VX-745]",8.434
10,"CN(c1ccccc1CNc1nc(Nc2ccc3c(c2)CC(=O)N3)ncc1C(F)(F)F)S(C)(=O)=O [UM0142118:01, PF-431396]",63.93
11,"FC(F)(F)Oc1ccc2nc(-c3ccc(OCCOCCOc4ccc(-c5nc6ccc(OC(F)(F)F)cc6[nH]5)nc4)cn3)[nH]c2c1 [UM0142119:01, AI-10-49]",39.19
12,"C=CC(=O)Nc1ccc(CN2C(=O)N(c3cc(OC)cc(OC)c3)Cc3cnc(Nc4ccc(N5CCN(C)CC5)cc4)nc32)cc1 [UM0142120:01, FIIN-2]",9.452
13,"CC(C)(C)C(O)/C=C/c1ccc2c(c1)OCO2 (stereo not shown) [UM0142121:01, Stiripentol]",12.44
14,"C=CC(=O)Nc1cccc(C)c1Nc1ncc2cc(-c3c(Cl)c(OC)cc(OC)c3Cl)ccc2n1 [UM0142122:01, BLU9931]",48.23
15,"CCCC[S+]([O-])c1sc2nc(-c3cccs3)cc(-c3ccccc3)c2c1N (stereo not shown) [UM0142124:01, SW033291]",33.39
16,"CC(C)(CCCCCC(O)CCCCCC(C)(C)C(=O)O)C(=O)O [UM0142125:01, ETC-1002]",5.399
17,"CNC(=O)c1ccccc1Oc1nc(Nc2cc(OC)c(OC)c(OC)c2)ncc1Br [UM0142126:01, SBI-0206965]",34.96
18,"CNc1ncc2cc(-c3cc(NC(=O)NCCC(C)(C)C)c(F)cc3C)c(C)nc2n1 [UM0142127:01, LY3009120]",13.32
19,"CN(C)C/C=C/C(=O)Nc1cccc(C(=O)Nc2cccc(Nc3ncc(Cl)c(-c4c[nH]c5ccccc45)n3)c2)c1 [UM0142128:01, THZ2]",74.86

# The remaining lines, values ahead:
row,Inh (PKA) [%],SMILES
1,3.385,"CN1CCN(C(=O)c2ccc3cc(CCNc4ncnc5ccc(C#N)cc45)ccc3c2)CC1 [UM0142129:01, Senexin B]"
2,6.005,"CN1C(=O)c2sccc2N(C)c2nc(Nc3ccc(S(N)(=O)=O)cc3)ncc21 [UM0142130:01, XMU-MP-1]"
3,20.59,"Cc1c(-c2c(-c3ccc(F)o3)sc3ncnc(O[C@H](Cc4ccccc4OCc4ccnn4CC(F)(F)F)C(=O)O)c23)ccc(OCCN2CCN(C)CC2)c1Cl [UM0142131:01, S63845]"
4,4.343,"COc1ccc(S(=O)(=O)N2CCC(N3CCC(C)CC3)CC2)cc1 [UM0142132:01, TASIN-1]"
5,13.04,"Cn1c2ccccc2c2c3c(c4c5ccccc5n(CCC#N)c4c21)C(=O)NC3=O [UM0142134:01, ICP 103]"
6,7.983,"Nc1cc(F)ccc1NC(=O)/C=C/c1cnn(C/C=C/c2ccccc2)c1 [UM0142135:01, RGFP966]"
7,21.99,"O=C(NCC1(c2nc(-c3ccccc3)cs2)CCOCC1)c1cccc(-c2noc(C(F)(F)F)n2)c1 [UM0142136:01, TMP269]"
8,20.15,"O=C(c1cccc(Cl)c1F)N1CCN(Cc2cccc(Nc3nccs3)n2)CC1 [UM0142137:01, MK-8745]"
9,37.99,"CSc1cccc(Nc2ncc3cc(-c4c(Cl)cccc4Cl)c(=O)n(C)c3n2)c1 [UM0142139:01, PD173955]"
10,8.181,"CCCCCCCCCCCCCCCCn1cc[n+](Cc2ccccc2)c1C [UM0142140:01, NH125]"
11,33.46,"C=CC(=O)Nc1cccc(Oc2nc(Nc3ccc(N4CCN(C)CC4)cc3)ncc2Cl)c1 [UM0142142:01, WZ3146]"
12,81.51,"CN(C)C/C=C/C(=O)Nc1ccc(C(=O)Nc2cccc(Nc3ncc(Cl)c(-c4c[nH]c5ccccc45)n3)c2)cc1 [UM0142143:01, THZ1]"
13,7.192,"C[C@@H]1COCCN1c1cc(=O)n2c(n1)N(Cc1cncc(Cl)c1)[C@H](C(F)(F)F)CC2 [UM0142144:01, SAR405]"
14,23.14,"O=C1N=C(NCc2cccs2)S/C1=C\c1ccc2ncccc2c1 [UM0142145:01, Ro 3306]"
15,37.05,"CN1CCC(Nc2nc(Nc3ccc(Oc4ccccc4)cc3)c3c(=O)[nH]cc(Br)c3n2)CC1 [UM0142146:01, G-749]"
16,10.88,"Cc1nc(Nc2cnn(C3CCNCC3)c2)nc2c1N(C)C(=O)c1cc3ccccc3cc1N2C [UM0142147:01, HTH-01-015]"
17,2.926,"COC(=O)C[C@H](NC(=O)[C@H](C)NC(=O)[C@@H](NC(=O)[C@H](Cc1ccc(O)cc1)NC(=O)OCc1ccccc1)C(C)C)C(=O)CF [UM0142151:01, Z-YVAD-FMK]"
18,14.94,"Cc1nn(C)c2c1C(c1ccc(C(F)(F)F)cc1)C(C#N)=C(N)O2 (stereo not shown) [UM0142152:01, BQU57]"
19,1.529,"O=CC[C@@H](O)[C@H](O)[C@H](O)CO [UM0142158:01, 2-Deoxy-D-glucose]"
20,0.5125,"Cc1c(-c2ccnn2C)cc(C(=O)NCc2ccc(S(C)(=O)=O)cn2)c(=O)n1-c1cccc(C(F)(F)F)c1 [UM0142161:01, Alvelestat]"
21,18.1,"O=C(O)c1ccc(-c2c[nH]c3ncc(-c4ccccc4)cc23)cc1C1CCCC1 [UM0142163:01, GSK 650394]"
